Data taken from ChEMBL document CHEMBL5233224, “Therapeutic potential of targeting SHP2 in human developmental disorders and cancers” (Eur J Med Chem, 2020).
One block for each compound: values may come before it.

Columns and labels:
[1] = target: T1, Tyrosine-protein phosphatase non-receptor type 11 (Homo sapiens, UniProt Q06124); assay: Inhibition of GST fused SHP2 PTP domain (unknown origin) using Thr-Arg-Asp-Ile-Tyr[PO3H2]-Glu-Thr-Asp-Tyr-Tyr as substrate incubated for 30 mins by malachite green staining based analysis
T1 sequence (Q06124 whole entry): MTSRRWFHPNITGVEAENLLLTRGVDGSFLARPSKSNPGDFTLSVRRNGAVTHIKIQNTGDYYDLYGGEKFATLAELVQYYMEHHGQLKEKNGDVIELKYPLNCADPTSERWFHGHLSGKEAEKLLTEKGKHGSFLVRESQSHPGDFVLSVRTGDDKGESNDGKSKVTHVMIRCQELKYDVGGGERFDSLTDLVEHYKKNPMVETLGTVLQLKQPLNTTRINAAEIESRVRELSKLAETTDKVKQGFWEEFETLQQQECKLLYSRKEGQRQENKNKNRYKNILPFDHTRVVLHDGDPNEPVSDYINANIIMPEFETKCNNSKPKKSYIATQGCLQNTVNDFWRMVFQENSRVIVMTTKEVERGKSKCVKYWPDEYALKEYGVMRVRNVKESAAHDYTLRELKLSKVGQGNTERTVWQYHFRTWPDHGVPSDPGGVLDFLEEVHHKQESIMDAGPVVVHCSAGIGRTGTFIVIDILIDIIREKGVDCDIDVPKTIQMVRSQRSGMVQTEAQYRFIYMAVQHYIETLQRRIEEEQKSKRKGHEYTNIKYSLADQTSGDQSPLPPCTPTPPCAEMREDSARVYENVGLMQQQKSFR

[2] = target: T1, Tyrosine-protein phosphatase non-receptor type 11; assay: Inhibition of SHP2 (unknown origin)
[3] = target: Tyrosine-protein phosphatase non-receptor type 11 (Homo sapiens) (UniProt Q06124); assay: Inhibition of SHP2 (unknown origin) at 100 ug/ml; conditions: dose 100.0 µg/ml
[4] = target: T1, Tyrosine-protein phosphatase non-receptor type 11; assay: Inhibition of human SHP2 (225 to 541 residues) using pNPP as substrate by microplate reader based analysis
[5] = target: T1, Tyrosine-protein phosphatase non-receptor type 11; assay: Inhibition of GST fused SHP2 PTP domain (unknown origin) using EFpYAEVGRSPPDPAK peptide as substrate incubated for 30 mins by malachite green staining based analysis
[6] = target: Tyrosine-protein phosphatase non-receptor type 6 (Homo sapiens, UniProt P29350); assay: Inhibition of SHP1 (unknown origin)
BaF3 = assay: Antiproliferative activity against mouse BaF3 cells assessed as cell growth inhibition measured after 48 hrs by MTS assay; type: functional, cell-based; conditions: BaF3, 48 h
[7] = target: T2, Receptor-type tyrosine-protein phosphatase O (Homo sapiens, UniProt Q16827); assay: Binding affinity to GLEPP1 (unknown origin) assessed as inhibition constant
T2 sequence (Q16827 whole entry): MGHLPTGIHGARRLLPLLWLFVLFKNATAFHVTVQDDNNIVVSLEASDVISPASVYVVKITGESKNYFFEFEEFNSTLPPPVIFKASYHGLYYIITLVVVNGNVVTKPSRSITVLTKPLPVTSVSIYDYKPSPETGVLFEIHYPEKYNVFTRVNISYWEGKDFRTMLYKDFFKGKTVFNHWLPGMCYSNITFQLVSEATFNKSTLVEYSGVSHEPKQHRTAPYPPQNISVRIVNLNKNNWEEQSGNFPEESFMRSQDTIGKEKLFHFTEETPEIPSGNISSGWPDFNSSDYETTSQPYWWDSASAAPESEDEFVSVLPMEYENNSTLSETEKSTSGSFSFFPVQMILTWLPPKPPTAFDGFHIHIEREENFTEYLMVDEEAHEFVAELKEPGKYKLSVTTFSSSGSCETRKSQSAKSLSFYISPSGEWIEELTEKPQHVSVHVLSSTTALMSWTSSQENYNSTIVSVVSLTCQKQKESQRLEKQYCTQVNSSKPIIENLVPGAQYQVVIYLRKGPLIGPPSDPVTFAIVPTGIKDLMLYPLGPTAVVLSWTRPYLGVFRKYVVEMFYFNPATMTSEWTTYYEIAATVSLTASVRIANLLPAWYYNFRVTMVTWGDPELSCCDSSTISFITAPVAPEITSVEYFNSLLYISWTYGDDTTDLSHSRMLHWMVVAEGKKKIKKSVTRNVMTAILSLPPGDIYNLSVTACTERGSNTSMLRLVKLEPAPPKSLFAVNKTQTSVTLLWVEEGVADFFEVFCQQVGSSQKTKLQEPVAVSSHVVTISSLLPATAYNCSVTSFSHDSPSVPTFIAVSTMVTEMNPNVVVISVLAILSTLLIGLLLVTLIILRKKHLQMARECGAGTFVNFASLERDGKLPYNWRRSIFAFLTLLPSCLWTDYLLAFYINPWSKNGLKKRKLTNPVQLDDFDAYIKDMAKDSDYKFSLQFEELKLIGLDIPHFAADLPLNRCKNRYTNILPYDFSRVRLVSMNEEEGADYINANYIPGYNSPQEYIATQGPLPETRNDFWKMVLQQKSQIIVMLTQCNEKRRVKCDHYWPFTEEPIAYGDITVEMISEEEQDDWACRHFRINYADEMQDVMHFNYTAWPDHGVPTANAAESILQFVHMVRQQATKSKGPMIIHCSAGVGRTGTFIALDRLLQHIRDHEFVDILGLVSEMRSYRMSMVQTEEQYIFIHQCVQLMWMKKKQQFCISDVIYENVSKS

[8] = target: T1, Tyrosine-protein phosphatase non-receptor type 11; assay: Binding affinity to SHP2 (unknown origin) assessed as inhibition constant
[9] = target: T1, Tyrosine-protein phosphatase non-receptor type 11; assay: Inhibition of human His6-tagged wild type SHP2 PTP domain using pNPP as substrate by absorbance based analysis
[10] = target: T1, Tyrosine-protein phosphatase non-receptor type 11; assay: Inhibition of SHP2 (unknown origin) using pNPP as substrate by spectrophotometer analysis

Chain of Tyrosine-protein phosphatase non-receptor type 6 (P29350 whole entry): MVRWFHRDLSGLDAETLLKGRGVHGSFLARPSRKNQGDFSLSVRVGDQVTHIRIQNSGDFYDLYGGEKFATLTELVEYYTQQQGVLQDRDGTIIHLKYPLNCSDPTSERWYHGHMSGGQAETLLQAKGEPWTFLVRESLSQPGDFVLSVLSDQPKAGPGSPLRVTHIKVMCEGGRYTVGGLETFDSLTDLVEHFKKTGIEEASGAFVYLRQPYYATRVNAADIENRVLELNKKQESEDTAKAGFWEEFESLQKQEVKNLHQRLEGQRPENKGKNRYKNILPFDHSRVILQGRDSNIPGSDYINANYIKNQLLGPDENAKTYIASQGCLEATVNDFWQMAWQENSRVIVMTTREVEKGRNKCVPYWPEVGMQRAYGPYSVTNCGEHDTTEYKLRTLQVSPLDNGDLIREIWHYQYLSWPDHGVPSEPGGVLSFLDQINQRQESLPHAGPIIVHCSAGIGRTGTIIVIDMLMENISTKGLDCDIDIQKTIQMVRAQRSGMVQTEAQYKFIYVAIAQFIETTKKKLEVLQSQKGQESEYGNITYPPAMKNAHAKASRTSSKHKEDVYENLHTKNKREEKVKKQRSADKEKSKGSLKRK

Compound: Cc1cc(C)c2c(c1)[nH]c1nnc(SCC(=O)NCc3cccs3)nc12
- IC50 [1]: 13.9 µM

Compound: COc1cccc(-c2nnc3n(Cc4ccc(C(=O)N5CCC[C@H]5C(=O)O)cc4Cl)c(=O)c4ccccc4n23)c1O
- IC50 [2]: 18.9 µM

Compound: O=C1C=CC(=O)C(c2cc(Cl)ccc2Cl)=C1
- IC50 [2]: 0.4 µM

Compound: O=C(CCn1cnc2sc3c(c2c1=O)CCCCC3)Nc1ccccc1[N+](=O)[O-]
- IC50 [5]: 9.97 µM
- IC50 [6]: > 100 µM
- IC50 (BaF3): 10.7 µM

Compound: C=C/C(=C/C(=O)C[C@H](C)C[C@@H](C)CC[C@H](O)[C@H](C)C(=O)C[C@@H](O)[C@H](C)[C@@H](C)OC(=O)C[C@@H](O)/C(C(=O)O)=C(\C)C(=O)O)CC
- IC50 [10]: 2900 nM

Further lines, results first:

- IC50 [2]: 21 µM
Compound: O=C(O)c1ccc(O)c(-c2nnc3n(Cc4ccccc4Cl)c(=O)c4ccccc4n23)c1

- inhibition [3]: 99%
Compound: (3R,4S,5R)-1-(((3S,4R,5R)-3-(carboxymethyl)-1-hydroxy-5-((R)-1-hydroxypropan-2-yl)-2,6,7-trioxa-1l5-stibabicyclo[2.2.1]heptan-1-yl)oxy)-5-((R)-1,2-dihydroxyethyl)-1-hydroxy-2,6,7-trioxa-1l5-stibabicyclo[2.2.1]heptane-3-carboxylic acid

- IC50 [4]: 630 nM
Compound: CCOC(=O)c1ccc(N2N=C(c3ccc([N+](=O)[O-])cc3)/C(=N/Nc3ccc(S(=O)(=O)O)cc3)C2=O)cc1

- Ki [7]: 123 nM
- Ki [8]: 652 nM
Compound: CCCCCCN(Cc1ccc(C#Cc2ccc(CCCC)cc2)cc1)c1ccc(O)c(C(=O)O)c1

- IC50 [9]: 35 µM
Compound: C=CC(=O)Nc1ccnc2ccccc12
